Legend:
sugar beet = test: Test B pre/postemergence sugar beet; assay type: in vivo, Beta vulgaris; details: for Plant response rating, Sugarbeets: scale of 0 to 10 where 0 is no effect and 10 is complete control
Summary of the method: (§1)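 Test chemicals in a non-phytotoxic solvent mixture with surfactant were sprayed preemergence onto planted seeds and postemergence onto plants 2 to 18 cm tall (1- to 4-leaf stage). After twelve to sixteen days in a greenhouse, injury was visually rated against untreated controls from 0 (no effect) to 10 (complete control).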

surinam grass = test: Test B pre/postemergence surinam grass; assay type: in vivo, Brachiaria decumbens
Summary of the method: as §1

corn = test: Test B pre/postemergence corn; assay type: in vivo, Zea mays
Summary of the method: as §1

wild oat = test: Test B pre/postemergence wild oat; assay type: in vivo, Avena fatua; details: for Plant response rating, Wild oats: scale of 0 to 10 where 0 is no effect and 10 is complete control
Summary of the method: as §1

smallflower flatsedge = test: Test B flood test smallflower flatsedge; assay type: in vivo, Cyperus difformis
Summary of the method: (§2)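 Read-out is a visual response score from 0 (no effect) to 10 (complete control), assigned by comparison with untreated controls. Treatment was applied at the 2-leaf stage, and plants stayed in the greenhouse for twelve to sixteen days before scoring.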

crabgrass = test: Test B pre/postemergence crabgrass; assay type: in vivo, Digitaria sanguinalis
Summary of the method: as §1

pigweed = test: Test B pre/postemergence pigweed; assay type: in vivo, Amaranthus retroflexus; details: for Plant response rating, Redroot pigweed: scale of 0 to 10 where 0 is no effect and 10 is complete control
Summary of the method: as §1

bamyardgrass = test: Test B flood test barnyardgrass; assay type: in vivo, Echinochloa crus-galli
Summary of the method: as §2

purple nutsedge = test: Test B pre/postemergence purple nutsedge; assay type: in vivo, Cyperus rotundus; details: for Plant response rating, Nutsedge: scale of 0 to 10 where 0 is no effect and 10 is complete control
Summary of the method: as §1

morningglory = test: Test B pre/postemergence morningglory; assay type: in vivo, Ipomoea hederacea; details: for Plant response rating, Morningglory: scale of 0 to 10 where 0 is no effect and 10 is complete control
Summary of the method: as §1

rice = test: Test B flood test rice; assay type: in vivo, Oryza sativa
Summary of the method: as §2

giant foxtail = test: Test B pre/postemergence giant foxtail; assay type: in vivo, Setaria faberii; details: for Plant response rating, Giant foxtail: scale of 0 to 10 where 0 is no effect and 10 is complete control
Summary of the method: as §1

bedstraw = test: Test B pre/postemergence bedstraw; assay type: in vivo, Galium aparine
Summary of the method: as §1

blackgrass = test: Test B pre/postemergence blackgrass; assay type: in vivo, Alopecurus myosuroides
Summary of the method: as §1

wheat = test: Test B pre/postemergence wheat; assay type: in vivo, Triticum aestivum; details: for Plant response rating, Wheat: scale of 0 to 10 where 0 is no effect and 10 is complete control
Summary of the method: as §1

rape = test: Test B pre/postemergence rape; assay type: in vivo, Brassica napus; details: for Plant response rating, Rape: scale of 0 to 10 where 0 is no effect and 10 is complete control
Summary of the method: as §1

[1] = Postemergence, Rate 250 g/ha, scale 0 to 10
[2] = Preemergence, Rate 250 g/ha, scale 0 to 10, 0 is no effect, 10 is complete control
[3] = Preemergence, Rate 500 g/ha, scale 0 to 10, 0 is no effect, 10 is complete control
[4] = Rate 62 g/ha, Postemergence, scale 0 to 10 (0 no effect, 10 complete control)
[5] = Rate 125 g/ha, Postemergence, scale 0 to 10, 0 is no effect, 10 is complete control
[6] = Postemergence, Rate 500 g/ha, scale of 0 to 10 where 0 is no effect and 10 is complete control
[7] = Preemergence, Rate 62 g/ha, scale of 0 to 10 where 0 is no effect and 10 is complete control
[8] = Preemergence, Rate 125 g/ha, scale of 0 to 10 where 0 is no effect and 10 is complete control
[9] = Rate 62 g/ha, flood test species, Pre-emergence, visual evaluation after twelve to sixteen days
[10] = Rate 125 g/ha, under heading Pre-emergence, flood test species, visual evaluation after twelve to sixteen days
[11] = Rate 250 g/ha, Pre-emergence (flood test species), scale 0 to 10, 0 is no effect, 10 is complete control
[12] = Rate 500 g/ha, Pre-emergence, flood test species, scale 0 to 10 (0 no effect, 10 complete control)

## CC(C)N(C(=O)n1oc(=O)n(C(C)C(=O)N(C)C)c1=O)c1ccccc1 (stereo not shown) [Compound 479]
Sugar beet; [1]
  Sugarbeets plant response rating: 0
Sugar beet; Preemergence, Rate 62 g/ha
  Plant response rating, Sugarbeets: 0
Sugar beet; Preemergence, Rate 125 g/ha
  Plant response rating, Sugarbeets: 0
Sugar beet; [2]
  Sugarbeets plant response rating: 2
Sugar beet; [3]
  Sugarbeets plant response rating: 4
Sugar beet; [4]
  Sugarbeets plant response rating: 0
Sugar beet; [5]
  Sugarbeets plant response rating: 0
Surinam grass; Postemergence, Rate 250 g/ha, scale 0 to 10, 0 no effect, 10 complete control
  B. signalgrass plant response rating: 3
Surinam grass; [6]
  B. signalgrass plant response rating: 7
Surinam grass; [7]
  Plant response rating, B. signalgrass: 0
Surinam grass; [8]
  Plant response rating, B. signalgrass: 5
Surinam grass; [2]
  B. signalgrass plant response rating: 6
Surinam grass; [3]
  B. signalgrass plant response rating: 9
Surinam grass; [4]
  B. signalgrass plant response rating: 0
Surinam grass; [5]
  B. signalgrass plant response rating: 2
corn; [1]
  Corn plant response rating: 0
corn; [6]
  Corn plant response rating: 4
corn; [7]
  Plant response rating, Corn: 0
corn; [8]
  Plant response rating, Corn: 0
corn; [2]
  Corn plant response rating: 0
corn; [3]
  Corn plant response rating: 3
corn; [4]
  Corn plant response rating: 0
corn; [5]
  Corn plant response rating: 0
Wild oat; [1]
  Wild oats plant response rating: 0
Wild oat; Preemergence, Rate 62 g/ha
  Plant response rating, Wild oats: 0
Wild oat; Preemergence, Rate 125 g/ha
  Plant response rating, Wild oats: 4
Wild oat; [2]
  Wild oats plant response rating: 5
Wild oat; [3]
  Wild oats plant response rating: 7
Wild oat; [4]
  Wild oats plant response rating: 0
Wild oat; [5]
  Wild oats plant response rating: 0
Smallflower flatsedge; [9]
  Plant response rating, S. Flatsedge (0 to 10 scale, 0 is no effect, 10 is complete control): 0
Smallflower flatsedge; [10]
  S. Flatsedge plant response rating (0 to 10 scale, 0 is no effect, 10 is complete control): 0
Smallflower flatsedge; [11]
  S. Flatsedge plant response rating: 0
Smallflower flatsedge; [12]
  S. Flatsedge plant response rating: 0
crabgrass; [1]
  Crabgrass plant response rating: 6
crabgrass; [6]
  Crabgrass plant response rating: 9
crabgrass; [8]
  Plant response rating, Crabgrass: 8
crabgrass; [2]
  Crabgrass plant response rating: 9
crabgrass; [3]
  Crabgrass plant response rating: 10
crabgrass; [4]
  Crabgrass plant response rating: 2
crabgrass; [5]
  Crabgrass plant response rating: 3
pigweed; [1]
  Redroot pigweed plant response rating: 2
pigweed; Preemergence, Rate 62 g/ha
  Plant response rating, Redroot pigweed: 0
pigweed; Preemergence, Rate 125 g/ha
  Plant response rating, Redroot pigweed: 3
pigweed; [2]
  Redroot pigweed plant response rating: 6
pigweed; [3]
  Redroot pigweed plant response rating: 6
pigweed; [4]
  Redroot pigweed plant response rating: 0
pigweed; [5]
  Redroot pigweed plant response rating: 2
bamyardgrass; [9]
  Plant response rating, Barnyardgrass (0 to 10 scale, 0 is no effect, 10 is complete control): 0
bamyardgrass; [10]
  Barnyardgrass plant response rating (0 to 10 scale, 0 is no effect, 10 is complete control): 0
bamyardgrass; [11]
  Barnyardgrass plant response rating: 0
bamyardgrass; [12]
  Barnyardgrass plant response rating: 0
Purple nutsedge; [1]
  Nutsedge plant response rating: 0
Purple nutsedge; Preemergence, Rate 62 g/ha
  Plant response rating, Nutsedge: 0
Purple nutsedge; Preemergence, Rate 125 g/ha
  Plant response rating, Nutsedge: 0
Purple nutsedge; [2]
  Nutsedge plant response rating: 0
Purple nutsedge; [4]
  Nutsedge plant response rating: 0
Purple nutsedge; [5]
  Nutsedge plant response rating: 0
morningglory; [1]
  Morningglory plant response rating: 10
morningglory; Preemergence, Rate 62 g/ha
  Plant response rating, Morningglory: 0
morningglory; Preemergence, Rate 125 g/ha
  Plant response rating, Morningglory: 0
morningglory; [2]
  Morningglory plant response rating: 4
morningglory; [3]
  Morningglory plant response rating: 4
morningglory; [4]
  Morningglory plant response rating: 7
morningglory; [5]
  Morningglory plant response rating: 10
rice; [9]
  Plant response rating, Rice (0 to 10 scale, 0 is no effect, 10 is complete control): 0
rice; [10]
  Rice plant response rating (0 to 10 scale, 0 is no effect, 10 is complete control): 0
rice; [11]
  Rice plant response rating: 0
rice; [12]
  Rice plant response rating: 0
Giant foxtail; [1]
  Giant foxtail plant response rating: 6
Giant foxtail; Preemergence, Rate 62 g/ha
  Plant response rating, Giant foxtail: 7
Giant foxtail; Preemergence, Rate 125 g/ha
  Plant response rating, Giant foxtail: 9
Giant foxtail; [2]
  Giant foxtail plant response rating: 10
Giant foxtail; [3]
  Giant foxtail plant response rating: 10
Giant foxtail; [4]
  Giant foxtail plant response rating: 0
Giant foxtail; [5]
  Giant foxtail plant response rating: 3
bedstraw; [1]
  Bedstraw plant response rating: 0
bedstraw; [2]
  Bedstraw plant response rating: 0
bedstraw; [3]
  Bedstraw plant response rating: 0
bedstraw; [4]
  Bedstraw plant response rating: 0
bedstraw; [5]
  Bedstraw plant response rating: 0
blackgrass; [1]
  Blackgrass plant response rating: 4
blackgrass; [6]
  Blackgrass plant response rating: 7
blackgrass; [7]
  Plant response rating, Blackgrass: 2
blackgrass; [8]
  Plant response rating, Blackgrass: 6
blackgrass; [2]
  Blackgrass plant response rating: 8
blackgrass; [3]
  Blackgrass plant response rating: 9
blackgrass; [4]
  Blackgrass plant response rating: 0
blackgrass; [5]
  Blackgrass plant response rating: 0
wheat; [1]
  Wheat plant response rating: 0
wheat; Preemergence, Rate 62 g/ha
  Plant response rating, Wheat: 0
wheat; Preemergence, Rate 125 g/ha
  Plant response rating, Wheat: 0
wheat; [2]
  Wheat plant response rating: 3
wheat; [3]
  Wheat plant response rating: 7
wheat; [4]
  Wheat plant response rating: 0
wheat; [5]
  Wheat plant response rating: 0
rape; [1]
  Rape plant response rating: 0
rape; Preemergence, Rate 62 g/ha
  Plant response rating, Rape: 0
rape; Preemergence, Rate 125 g/ha
  Plant response rating, Rape: 0
rape; [2]
  Rape plant response rating: 1
rape; [3]
  Rape plant response rating: 4
rape; [4]
  Rape plant response rating: 0
rape; [5]
  Rape plant response rating: 0

Source: patent US6737383B1, “Herbicidal oxadiazolidines” (priority 1999, dated 2004)
